Measured values published in PubChem BioAssay AID1963446 (Molecular Pharmacology Branch, DTP, NCI, 2024).
Several values for one entry are separate records, joined by “and”; a condition that tells them apart may be missing. Equal values may be shown once.

Tested on: 993429-296-R-J1-PDC complex spheroid growth, percent test/control
Test: Anticancer human tumor 993429-296-R-J1-PDC patient-derived uterine sarcoma cell line growth inhibition [Asc]
Details: for viability, T/C: stronger effect = lower value
Outline: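 Stromal components (HUVEC and hMSC) are co-assembled with the cancer cells into multicellular spheroids. Drugs are then added singly or paired, at concentrations falling by half-log increments from a clinically achievable maximum, capped at 10 microM without known Cmax.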
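Note: spheroids exposed to compounds for seven days.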

CCN1C(C(=O)NC23CCC(C(=O)O)(CC2)CC3)C(c2cccc(Cl)c2F)C2(C(=O)Nc3cc(Cl)ccc32)C12CCCCC2 (stereo not drawn)
viability, T/C (compound 0.00949 µM): 92.7% and 92.5% | IC50 (compound alone, run of 09/27/2022): > 3 µM | IC50 (curve of compound): > 3 µM

C=CC(=O)N1CCN(c2nc(=O)n(-c3c(C)ccnc3C(C)C)c3nc(-c4c(O)cccc4F)c(F)cc23)C(C)C1 (stereo not drawn) + CNC(C)C(=O)NC1CN(S(=O)(=O)c2cccc(S(=O)(=O)N3CCC4CCC(C(=O)NC(c5ccccc5)c5ccccc5)N4C(=O)C(NC(=O)C(C)NC)C3)c2)CCC2CCC(C(=O)NC(c3ccccc3)c3ccccc3)N2C1=O
IC50 (curve of first compound, second compound 0.01 µM): > 10 µM | IC50 (curve of first compound, second compound 0.0316 µM): > 10 µM | IC50 (curve of first compound, second compound 0.1 µM): > 10 µM | IC50 (curve of first compound, second compound 0.316 µM): > 10 µM | IC50 (curve of first compound, second compound 1 µM): > 10 µM | viability, T/C (second compound 0.01 µM, first compound 0.0316 µM): 58.3% | viability, T/C (second compound 0.01 µM, first compound 0.1 µM): 67.2% | viability, T/C (second compound 0.01 µM, first compound 0.316 µM): 71.1% | viability, T/C (second compound 0.01 µM, first compound 1 µM): 69.7% | viability, T/C (second compound 0.01 µM, first compound 3.16 µM): 75.1% | viability, T/C (second compound 0.01 µM, first compound 10 µM): 68.1% | viability, T/C (second compound 0.0316 µM, first compound 0.0316 µM): 58.9% | viability, T/C (second compound 0.0316 µM, first compound 0.1 µM): 65.8% | viability, T/C (second compound 0.0316 µM, first compound 0.316 µM): 66.2% | viability, T/C (second compound 0.0316 µM, first compound 1 µM): 49.3% | viability, T/C (second compound 0.0316 µM, first compound 3.16 µM): 62.8% | viability, T/C (second compound 0.0316 µM, first compound 10 µM): 61.2% | viability, T/C (second compound 0.1 µM, first compound 0.0316 µM): 56.7% | viability, T/C (second compound 0.1 µM, first compound 0.1 µM): 49.8% | viability, T/C (second compound 0.1 µM, first compound 0.316 µM): 62.8% | viability, T/C (second compound 0.1 µM, first compound 1 µM): 65% | viability, T/C (second compound 0.1 µM, first compound 3.16 µM): 59.9% | viability, T/C (second compound 0.1 µM, first compound 10 µM): 64.5% | viability, T/C (second compound 0.316 µM, first compound 0.0316 µM): 52.3% | viability, T/C (second compound 0.316 µM, first compound 0.1 µM): 48.6% | viability, T/C (second compound 0.316 µM, first compound 0.316 µM): 60.6% | viability, T/C (second compound 0.316 µM, first compound 1 µM): 55.9% | viability, T/C (second compound 0.316 µM, first compound 3.16 µM): 62.1% | viability, T/C (second compound 0.316 µM, first compound 10 µM): 59.5% | viability, T/C (second compound 1 µM, first compound 0.0316 µM): 51.7% | viability, T/C (second compound 1 µM, first compound 0.1 µM): 57.3% | viability, T/C (second compound 1 µM, first compound 0.316 µM): 61.5% | viability, T/C (second compound 1 µM, first compound 1 µM): 60.6% | viability, T/C (second compound 1 µM, first compound 3.16 µM): 59.2% | viability, T/C (second compound 1 µM, first compound 10 µM): 59%
